In US11673897B2, “Compounds for the treatment of kinase-dependent disorders” (Exelixis, Inc., priority 2018, dated 2023) one finds IC50 data, which are given here for 14 compounds.

What all share (format): cell-based
The target of one assay is AXL (Homo sapiens (Human), UniProt P30530). In words: AXL autophosphorylation ELISA in A-172 cells. The following applies: cellular, Gas6-stimulated, phospho-AXL ELISA. As to the method:
A-172 glioblastoma cells (ATCC #CRL-1620) were seeded at 2.5×10^5 cells/well onto 24-well plates (Greiner #662165), in […] (Thermo Fisher #11995-040) containing 10% FBS (Thermo Fisher #26140-079), […] (Thermo Fisher #11140-050), […] (Thermo Fisher #35050-061), and 1% Penicillin Streptomycin (Thermo Fisher #15140-122). A-172 cells were incubated at 37° C., […] for 24 hand then starved for 24 h in serum-free medium. Test compounds were serially diluted to produce an 8-point dose curve in fresh serum-free medium to a final concentration of 0.3% DMSO (vehicle) and added to the cells and incubated for 1 h. Cells were then stimulated with 1 μg/mL recombinant human Gas6 (R&D Systems #885-GSB-500) for 15 min, washed with cold PBS, and immediately lysed with 150 μL of cold 1× lysis buffer [20 mM Tris, 137 mM sodium chloride, 2 mM EDTA, 10% glycerol, 1% NP-40 alternative, 1 mM activated sodium orthovanadate, 1 mM PefaBloc SC (Sigma-Aldrich #11429868001), protease/phosphatase inhibitor tablet (Thermo Fisher #A32959)]. Lysates were collected and 100 μL/well added into the human phospho-AXL DuoSet IC ELISA (R&D Systems #DYC2228-2). Assay was performed according to manufacturer's instructions and sample phospho-AXL concentrations were extrapolated using human phospho-AXL control (R&D Systems #841645) as a standard. Positive control wells (100% activity) contained Gas6-stimulated, DMSO-treated cell lysates. Negative control wells (0% activity) contained Gas6-stimulated, reference inhibitor-treated cell lysates. IC50 values were calculated by nonlinear regression analysis using a 4-parameter logistic curve fit in ActivityBase XE (IDBS).
(In general: In an ELISA, binding on a coated surface is turned into a signal by an enzyme label.)

A further assay deals with Met (Homo sapiens (Human), UniProt P08581). In words: Met autophosphorylation ELISA in PC-3 cells. The following applies: cellular, HGF-stimulated, phospho-Met ELISA, read-out: c-Met IC50. The protocol:
PC-3 prostate cancer cells (ATCC #CRL-1435) were seeded at 4×10^4 cells/well onto 24-well plates (Greiner #662165), in DMEM (Thermo Fisher #11995-040) containing 10% FBS (Thermo Fisher #26140-079), 1% MEM NEAA (Thermo Fisher #11140-050), 1% GlutaMax (Thermo Fisher #35050-061), and 1% Penicillin Streptomycin (Thermo Fisher #15140-122). PC-3 cells were incubated at 37° C., 5% CO2 for 24 h and then starved for 3 h in serum-free medium. Test compounds were serially diluted to produce an 8-point dose curve in fresh serum-free medium to a final concentration of 0.3% DMSO (vehicle) and added to the cells and incubated for 1 h. Cells were then stimulated with 100 ng/mL recombinant human HGF (R&D Systems #294-HG-250) for 10 min, washed with cold PBS, and immediately lysed with 130 μL of cold 1× lysis buffer [20 mM Tris, 137 mM sodium chloride, 2 mM EDTA, 10% glycerol, 1% NP-40 alternative, 1 mM activated sodium orthovanadate, 1 mM PefaBloc SC (Sigma-Aldrich #11429868001), and protease/phosphatase inhibitor tablet (Thermo Fisher #A32959)]. Lysates were clarified by centrifugation and 100 μL/well added into the PathScan phospho-Met (panTyr) Sandwich ELISA (Cell Signaling Technology #7333). Assay was performed according to manufacturer's instructions. Positive control wells (100% activity) contained HGF-stimulated, DMSO-treated cell lysates. Negative control wells (0% activity) contained HGF-stimulated, reference inhibitor-treated cell lysates. IC50 values were calculated by nonlinear regression analysis using a 4-parameter logistic curve fit in ActivityBase XE (IDBS).

The next assay addresses KDR (Homo sapiens (Human), UniProt P35968). In words: KDR autophosphorylation ELISA in HUVEC cells. The following applies: cellular, VEGF165-stimulated, phospho-KDR ELISA. As to the method:
Human umbilical vein endothelial cells or HUVEC (Lonza #C2519A) were seeded at 2×10^4 cells/well onto 96-well plates (Corning #3904), in EGM-2 growth medium (Lonza #CC-3162) containing 1% Penicillin Streptomycin (Thermo Fisher #15140-122). HUVEC cells were incubated at 37° C., 5% CO2 for 24 h and then starved for 24 h in serum-free EBM-2 basal medium (Lonza #CC-3156) containing 1% Penicillin Streptomycin. Test compounds were serially diluted to produce an 8-point dose curve in fresh serum-free medium to a final concentration of 0.3% DMSO (vehicle) and added to the cells and incubated for 1 h. Cells were then stimulated with 100 ng/mL recombinant human VEGF165 (R&D Systems #293-VE-500) for 5 min, washed with cold PBS, and immediately lysed with 130 μL of cold 1× lysis buffer [20 mM Tris, 137 mM sodium chloride, 2 mM EDTA, 10% glycerol, 1% NP-40 alternative, 1 mM activated sodium orthovanadate, 1 mM PefaBloc SC (Sigma-Aldrich #11429868001), protease/phosphatase inhibitor tablet (Thermo Fisher #A32959)]. Lysates were collected and 100 μL/well added into the human phospho-KDR DuoSet IC ELISA (R&D Systems #DYC1766-2). Assay was performed according to manufacturer's instructions and sample phospho-KDR concentrations were extrapolated using human phospho-KDR control (R&D Systems #841421) as a standard. Positive control wells (100% activity) contained VEGF165-stimulated, DMSO-treated cell lysates. Negative control wells (0% activity) contained non-stimulated cell lysates. IC50 values were calculated by nonlinear regression analysis using a 4-parameter logistic curve fit in ActivityBase XE (IDBS).

AXL, sequence (P30530 26-894): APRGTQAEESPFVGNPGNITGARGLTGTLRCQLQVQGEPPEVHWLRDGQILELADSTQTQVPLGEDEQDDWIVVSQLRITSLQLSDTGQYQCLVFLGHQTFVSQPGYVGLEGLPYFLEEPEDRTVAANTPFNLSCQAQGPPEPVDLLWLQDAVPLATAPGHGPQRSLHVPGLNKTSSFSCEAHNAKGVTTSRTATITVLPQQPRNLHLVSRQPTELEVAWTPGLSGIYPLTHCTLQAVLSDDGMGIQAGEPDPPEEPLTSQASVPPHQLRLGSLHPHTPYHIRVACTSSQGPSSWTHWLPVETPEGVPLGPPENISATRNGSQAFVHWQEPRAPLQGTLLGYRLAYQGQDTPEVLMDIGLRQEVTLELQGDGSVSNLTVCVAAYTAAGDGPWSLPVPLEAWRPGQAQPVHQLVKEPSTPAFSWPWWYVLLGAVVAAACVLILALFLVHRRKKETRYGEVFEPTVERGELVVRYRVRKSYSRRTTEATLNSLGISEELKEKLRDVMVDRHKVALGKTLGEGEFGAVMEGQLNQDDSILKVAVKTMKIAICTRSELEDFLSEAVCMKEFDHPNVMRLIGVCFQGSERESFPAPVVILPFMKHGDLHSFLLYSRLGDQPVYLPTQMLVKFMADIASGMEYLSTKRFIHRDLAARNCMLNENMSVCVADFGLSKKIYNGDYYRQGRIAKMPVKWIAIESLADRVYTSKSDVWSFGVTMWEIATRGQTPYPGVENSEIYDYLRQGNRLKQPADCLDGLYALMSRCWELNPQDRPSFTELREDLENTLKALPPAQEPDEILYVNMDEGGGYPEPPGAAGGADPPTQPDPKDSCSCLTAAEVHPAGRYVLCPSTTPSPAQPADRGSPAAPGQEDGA
Met, sequence (P08581 25-1390): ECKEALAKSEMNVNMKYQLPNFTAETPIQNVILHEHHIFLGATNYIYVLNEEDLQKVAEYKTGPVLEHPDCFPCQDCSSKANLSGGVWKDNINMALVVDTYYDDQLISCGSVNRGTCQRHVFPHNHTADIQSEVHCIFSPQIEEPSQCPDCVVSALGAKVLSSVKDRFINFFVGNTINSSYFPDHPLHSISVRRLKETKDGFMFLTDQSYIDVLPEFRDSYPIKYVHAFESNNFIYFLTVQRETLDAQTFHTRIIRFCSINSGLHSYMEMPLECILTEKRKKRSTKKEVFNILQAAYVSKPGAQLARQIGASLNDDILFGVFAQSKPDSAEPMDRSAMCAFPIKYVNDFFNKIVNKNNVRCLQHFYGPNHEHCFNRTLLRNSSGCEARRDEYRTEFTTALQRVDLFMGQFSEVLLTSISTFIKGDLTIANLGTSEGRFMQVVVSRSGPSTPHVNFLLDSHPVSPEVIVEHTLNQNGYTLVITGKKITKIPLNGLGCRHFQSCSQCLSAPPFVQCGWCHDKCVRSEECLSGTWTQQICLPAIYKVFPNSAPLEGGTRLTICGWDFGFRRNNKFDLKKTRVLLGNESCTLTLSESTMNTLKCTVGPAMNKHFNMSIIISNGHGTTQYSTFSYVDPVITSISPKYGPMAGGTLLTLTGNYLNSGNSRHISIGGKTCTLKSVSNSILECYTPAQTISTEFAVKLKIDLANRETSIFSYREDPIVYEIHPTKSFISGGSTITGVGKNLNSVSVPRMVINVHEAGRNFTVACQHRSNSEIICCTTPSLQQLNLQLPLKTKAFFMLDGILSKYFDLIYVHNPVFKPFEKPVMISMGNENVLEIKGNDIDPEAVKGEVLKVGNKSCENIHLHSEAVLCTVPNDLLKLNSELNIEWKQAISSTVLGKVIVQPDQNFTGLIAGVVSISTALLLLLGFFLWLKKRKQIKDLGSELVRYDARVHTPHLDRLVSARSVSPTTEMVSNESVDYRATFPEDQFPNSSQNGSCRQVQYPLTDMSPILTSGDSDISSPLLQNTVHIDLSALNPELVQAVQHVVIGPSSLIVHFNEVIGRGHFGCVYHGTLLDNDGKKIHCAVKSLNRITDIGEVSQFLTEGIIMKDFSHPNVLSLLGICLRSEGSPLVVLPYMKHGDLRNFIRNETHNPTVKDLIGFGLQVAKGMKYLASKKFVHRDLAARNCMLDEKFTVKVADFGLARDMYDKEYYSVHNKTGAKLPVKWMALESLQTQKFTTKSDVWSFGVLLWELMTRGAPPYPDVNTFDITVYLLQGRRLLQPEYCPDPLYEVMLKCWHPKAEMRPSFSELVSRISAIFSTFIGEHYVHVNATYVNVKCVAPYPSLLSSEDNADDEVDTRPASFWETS
KDR, sequence (P35968 20-1356): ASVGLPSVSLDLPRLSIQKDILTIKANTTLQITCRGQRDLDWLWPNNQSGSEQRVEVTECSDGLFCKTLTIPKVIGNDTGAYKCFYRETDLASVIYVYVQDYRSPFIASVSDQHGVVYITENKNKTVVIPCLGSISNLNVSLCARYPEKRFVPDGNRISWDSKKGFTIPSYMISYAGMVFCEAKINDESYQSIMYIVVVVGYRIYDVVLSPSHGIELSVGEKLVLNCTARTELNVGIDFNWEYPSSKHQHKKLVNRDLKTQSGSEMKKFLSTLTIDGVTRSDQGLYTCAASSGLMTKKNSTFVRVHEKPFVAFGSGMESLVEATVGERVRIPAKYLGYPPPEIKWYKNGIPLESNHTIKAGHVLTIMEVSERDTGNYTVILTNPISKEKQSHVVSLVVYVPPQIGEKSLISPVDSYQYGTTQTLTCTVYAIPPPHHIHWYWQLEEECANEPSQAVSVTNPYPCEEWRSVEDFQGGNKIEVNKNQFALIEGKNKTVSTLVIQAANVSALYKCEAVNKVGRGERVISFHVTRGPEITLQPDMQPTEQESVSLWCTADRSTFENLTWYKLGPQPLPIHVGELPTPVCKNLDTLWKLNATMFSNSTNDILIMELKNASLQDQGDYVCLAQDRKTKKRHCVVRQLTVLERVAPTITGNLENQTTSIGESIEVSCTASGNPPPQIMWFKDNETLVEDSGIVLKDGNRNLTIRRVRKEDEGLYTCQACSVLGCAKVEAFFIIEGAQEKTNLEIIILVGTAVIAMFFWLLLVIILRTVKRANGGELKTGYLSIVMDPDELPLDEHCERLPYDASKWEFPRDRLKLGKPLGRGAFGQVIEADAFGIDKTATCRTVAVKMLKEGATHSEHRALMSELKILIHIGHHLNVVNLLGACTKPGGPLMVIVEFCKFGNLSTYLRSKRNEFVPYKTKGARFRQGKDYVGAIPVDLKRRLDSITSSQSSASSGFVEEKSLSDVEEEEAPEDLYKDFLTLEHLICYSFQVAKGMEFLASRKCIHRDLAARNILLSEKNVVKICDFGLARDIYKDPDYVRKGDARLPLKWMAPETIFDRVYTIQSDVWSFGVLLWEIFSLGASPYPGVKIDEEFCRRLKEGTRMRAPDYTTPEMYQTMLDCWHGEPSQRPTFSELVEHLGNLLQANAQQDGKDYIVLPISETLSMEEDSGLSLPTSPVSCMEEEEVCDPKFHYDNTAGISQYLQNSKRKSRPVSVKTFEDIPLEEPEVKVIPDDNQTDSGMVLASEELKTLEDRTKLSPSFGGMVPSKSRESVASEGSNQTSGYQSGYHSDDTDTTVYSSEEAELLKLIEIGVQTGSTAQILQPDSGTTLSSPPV

What is called IC50 is the concentration that gives 50% inhibition. In the case of `COCCc1noc(-c2cc3c(Oc4ncc(NC(=O)C5(C(=O)Nc6ccc(F)cc6)CC5)cc4F)ccnc3cc2OC)n1` [Compound 26, 1-N′-[5-Fluoro-6-[7-methoxy-6-[3-(2-methoxyethyl)-1,2,4-oxadiazol-5-yl]quinolin-4-yl]oxypyridin-3-yl]-1-N-(4-fluorophenyl)cyclopropane-1,1-dicarboxamide], the half-maximal inhibitory concentration (IC50) on AXL, at Met and at KDR was > 300 nM each time.
In the case of `COc1cc2nccc(Oc3ncc(NC(=O)C4(C(=O)Nc5ccc(F)cc5)CC4)cc3F)c2cc1C(=O)O` [Compound 15, 4-[3-Fluoro-5-[[1-[(4-fluorophenyl)carbamoyl]cyclopropanecarbonyl]amino]pyridin-2-yl]oxy-7-methoxyquinoline-6-carboxylic acid], the concentration for half-maximal inhibition (IC50) on AXL, at Met and at KDR was > 300 nM each time.
In the case of `COCCOc1cc2nccc(Oc3ncc(NC(=O)C4(C(=O)Nc5ccc(F)cc5)CC4)cc3Cl)c2nc1OC` [Compound 115, 1-N′-[5-Chloro-6-[[6-methoxy-7-(2-methoxyethoxy)-1,5-naphthyridin-4-yl]oxy]pyridin-3-yl]-1-N-(4-fluorophenyl)cyclopropane-1,1-dicarboxamide], the IC50 is 100 to 300 nM on AXL, 10 to 100 nM at Met and > 300 nM against KDR.
On to `O=C(Nc1ccc(F)cc1)C1(C(=O)Nc2cnc(Oc3ccnc4cc5c(nc34)OCCO5)c(Cl)c2)CC1` [Compound 104, 1-N′-[5-Chloro-6-(2,3-dihydro-[1,4]dioxino[2,3-b][1,5]naphthyridin-6-yloxy)pyridin-3-yl]-1-N-(4-fluorophenyl)cyclopropane-1,1-dicarboxamide], for which the IC50 against AXL, at Met and against KDR was > 300 nM each time.
In the case of `COc1cc2nccc(Oc3ncc(NC(=O)C4(C(=O)Nc5ccc(F)cc5)CC4)cc3F)c2nc1OCCCN1CCOCC1` [Compound 135, 1-N′-[5-Fluoro-6-[[7-methoxy-6-(3-morpholin-4-ylpropoxy)-1,5-naphthyridin-4-yl]oxy]pyridin-3-yl]-1-N-(4-fluorophenyl)cyclopropane-1,1-dicarboxamide], the IC50 at AXL, at Met and on KDR was > 300 nM in each case.
Regarding `COc1cc2nccc(Oc3ccc(NC(=O)C4(C(=O)Nc5ccc(F)cc5)CC4)c(C(N)=O)n3)c2nc1OC` [Compound 91, 1-N′-[2-Carbamoyl-6-[(6,7-dimethoxy-1,5-naphthyridin-4-yl)oxy]pyridin-3-yl]-1-N-(4-fluorophenyl)cyclopropane-1,1-dicarboxamide], the IC50 at AXL, on Met and on KDR was > 300 nM throughout.
For the compound `COCCOc1cc2ncnc(Oc3ccc(NC(=O)C4(C(=O)Nc5ccc(F)cc5)CC4)cn3)c2nc1OC` [Compound 156, 1-N-(4-Fluorophenyl)-1-N′-[6-[6-methoxy-7-(2-methoxyethoxy)pyrido[3,2-d]pyrimidin-4-yl]oxypyridin-3-yl]cyclopropane-1,1-dicarboxamide], the IC50 against AXL was 10 to 100 nM; on Met, > 300 nM; against KDR, > 300 nM.
Consider `COc1cc(Oc2ccnc3cc(OC)c(OC)nc23)ncc1NC(=O)C1(C(=O)Nc2ccc(F)cc2)CC1` [Compound 88, 1-N′-[6-[(6,7-Dimethoxy-1,5-naphthyridin-4-yl)oxy]-4-methoxypyridin-3-yl]-1-N-(4-fluorophenyl)cyclopropane-1,1-dicarboxamide], for which the IC50 at AXL was 100 to 300 nM; on Met, > 300 nM; at KDR, > 300 nM.
With `COCc1noc(-c2cc3c(Oc4ncc(NC(=O)C5(C(=O)Nc6ccc(F)cc6)CC5)cc4F)ccnc3cc2OC)n1` [Compound 25, 1-N′-[5-Fluoro-6-[7-methoxy-6-[3-(methoxymethyl)-1,2,4-oxadiazol-5-yl]quinolin-4-yl]oxypyridin-3-yl]-1-N-(4-fluorophenyl)cyclopropane-1,1-dicarboxamide], the IC50 against AXL, at Met and against KDR was > 300 nM each time.
Take `O=C(Nc1ccc(F)cc1)C1(C(=O)Nc2ccc(Oc3ccnc4cc5c(nc34)OCCO5)nc2)CC1` [Compound 103, 1-N′-[6-(2,3-Dihydro-[1,4]dioxino[2,3-b][1,5]naphthyridin-6-yloxy)pyridin-3-yl]-1-N-(4-fluorophenyl)cyclopropane-1,1-dicarboxamide]: the IC50 against AXL, on Met and at KDR was > 300 nM in each case.
Turning to `COc1cc2nccc(Oc3ncc(NC(=O)C4(C(=O)Nc5ccc(F)cc5)CC4)cc3C)c2nc1OC` [Compound 85, 1-N′-[6-[(6,7-Dimethoxy-1,5-naphthyridin-4-yl)oxy]-5-methylpyridin-3-yl]-1-N-(4-fluorophenyl)cyclopropane-1,1-dicarboxamide], the IC50 against AXL, on Met and against KDR was > 300 nM throughout.
For `COCCOc1cc2ncnc(Oc3ncc(NC(=O)C4(C(=O)Nc5ccc(F)cc5)CC4)cc3F)c2nc1OC` [Compound 159, 1-N′-[5-Fluoro-6-[6-methoxy-7-(2-methoxyethoxy)pyrido[3,2-d]pyrimidin-4-yl]oxypyridin-3-yl]-1-N-(4-fluorophenyl)cyclopropane-1,1-dicarboxamide], the IC50 against AXL, on Met and at KDR was > 300 nM in each case.
`O=C(Nc1ccc(F)cc1)C1(C(=O)Nc2cnc(Oc3ccnc4cc5c(nc34)OCCO5)c(F)c2)CC1` [Compound 105, 1-N′-[6-(2,3-Dihydro-[1,4]dioxino[2,3-b][1,5]naphthyridin-6-yloxy)-5-fluoropyridin-3-yl]-1-N-(4-fluorophenyl)cyclopropane-1,1-dicarboxamide]: the IC50 against AXL, on Met and against KDR was > 300 nM each time.
For the compound `COc1cc2nccc(Oc3nc(C)c(NC(=O)C4(C(=O)Nc5ccc(F)cc5)CC4)cc3Br)c2nc1OC` [Compound 90, 1-N′-[5-Bromo-6-[(6,7-dimethoxy-1,5-naphthyridin-4-yl)oxy]-2-methylpyridin-3-yl]-1-N-(4-fluorophenyl)cyclopropane-1,1-dicarboxamide], the IC50 on AXL, at Met and on KDR was > 300 nM throughout.
